According to patent publication US20260217656A1, “Compounds Affecting KRAS” (UNIVERSITAT DE BARCELONA, priority 2022, published 2026):
Entries after “also recorded” stand apart in the source; their conditions may differ.

Assays:
[1] = tested on: Ras effectors ERK and AKT in DLD-1 cells; test: Western blot of downstream RAS signaling (P-ERK, P-AKT, P-MEK) in serum-starved DLD-1 cells; assay type: cell-based, human
Text: (§1) DLD-1 (KRASWT/G13D) (clone V15, #HD PAR-086) colorectal adenocarcinoma cell line and DLD-1 knockout of mutant KRAS allele, DLD-1 KO (KRASWT/−) (clone DWT7, #HD105-002), were obtained from Horizon Discovery Ltd. (Cambridge, UK). hTERT-RPE (KRASWT/WT) immortalized retinal pigment epithelial human cell line was obtained from the […] (ATCC). DLD-1 KO cells stably expressing HA-KRAS G12V were previously generated in our laboratory (Cabot et al., 2021). All cells were grown in DMEM-HAM s F12 (1:1) supplemented with 10% foetal bovine serum (Biological Industries, Israel), penicillin, streptomycin, and nonessential amino acids. Cells were tested once per month for mycoplasma contamination.
(§2) Cells were seeded in a media containing 10% FBS for 24 hours and then they were serum starved (0.1% FBS) for the next 24 hours. Afterwards, they were incubated with the different compounds during the times specified in each figure. When indicated, also in order to activate downstream KRAS cell signalling, treatment for 10 minutes with EGF (50 ng/mL) (Sigma-Aldrich) was performed.
Proteins were resolved by SDS-PAGE, transferred onto PVDF membranes (Immobilon-P, Millipore) and Western blot was performed as previously described (Cabot et al, Oncogene 2021). The following primary antibodies were used: anti-c-RAF (BD Transduction 610151, 1:500); anti-phospho-c-RAF S338 (Cell Signaling 9427, 1:500); anti-AKT (Cell Signaling 9272, 1:1000); anti-phospho-AKT T308 (Cell Signaling 4056, 1:1000); anti-phospho-MEK1/2 S221 (Cell Signalling […]); anti-p44/42 MAPK (ERK1/2) (Cell Signaling 9102, 1:2000); anti-phospho-p44/42 MAPK(ERK1/2) T202/Y204 (Cell Signaling 4370, 1:2000); anti-HA (Sigma-Aldrich H6908, 1:1000); anti-cleaved-caspase-3 (Asp175) (Cell Signaling 9661, 1:1000); HRP-coupled secondary antibodies used: goat anti-rabbit (BioRad 170-6515, 1:3000) or goat anti-mouse (BioRad 170 6516, 1:3000).
For analysis of RAS signalling, cells were lysed in a buffer containing 67 mM Tris-HCl pH 6.8 and 2% SDS and then the samples were heated at 97° C. for 15 minutes. Protein concentration of the lysates was assessed using the Lowry method. An aliquot of […] of protein per sample was loaded onto the gels.
We first analyzed the effect of P14 on the activation of downstream RAS signaling pathways (RAF/MEK/ERK and PI3K/AKT) in DLD-1 cells (CRC cells carrying one oncogenic KRAS allele). To this end, DLD-1 serum-starved cells (0.1% FCS) were treated with P14 (100 μM) at different times, and activation of AKT and ERK was evaluated by Western blot. […] As a 3-hour treatment was associated with major effects, we chose this duration for the subsequent experiments with the other compounds. Next, DLD-1 serum-starved cells were treated with P14A-P14C at 100 μM for 3 hours and activation of AKT and ERK was assessed as above. […] The kinetics of RAS downstream signaling was analyzed in P14B-treated cells compared to 10% FBS serum.

[2] = tested on: ERK and AKT in DLD-1 cells stably expressing HA-KRAS-G12V; test: Western blot of AKT and ERK phosphorylation in DLD-1 cells stably expressing HA-KRAS-G12V; assay type: cell-based, human; conditions: serum-starved DLD-1 cells stably expressing HA-KRAS-G12V
Text: as §1
as §2, with “performed. […]” for “performed.”
We assessed the possibility that P14B favors RAS-effector binding and consequently increases downstream RAS signaling. […] The interaction was analyzed after 10 min of P14B treatment since P—C-RAF and P-MEK were observed after 15 min (FIG. 3C). […]

[3] = molecular target: T1, HA-KRAS-G12V interaction with BRAF, C-RAF/P-C-RAF, ARAF (Homo sapiens, UniProt P01116, G12V); test: Co-immunoprecipitation of HA-KRASG12V with RAF family members; assay type: cell-based; conditions: 10 min treatment, 100 μM
T1 construct: expressed in transfected cells; host or cells: DLD-1 KO (KRAS WT/-) clone DWT7 cells stably expressing HA-KRAS G12V
Procedure: DLD-1 KO cells stably expressing HA-KRAS G12V were serum starved for the next 24 hours before treatment with the compounds for the times indicated. Next, an IP with anti-HA antibody crosslinked to agarose beads (clone HA-7, Sigma-Aldrich A20956) was performed as previously described (Cabot et al, Oncogene 2021).
We assessed the possibility that P14B favors RAS-effector binding and consequently increases downstream RAS signaling. To this end, co-immunoprecipitation experiments were carried out to analyze the interaction of KRAS with different RAF family members upon P14B treatment. The interaction was analyzed after 10 min of P14B treatment since P—C-RAF and P-MEK were observed after 15 min (FIG. 3C). DLD-1 cells stably expressing HA-KRAS-G12V were serum-starved and then treated for 10 min with either EGF or P14B.

[4] = tested on: DLD-1 cells; test: MTS cell viability assay, DLD-1; assay type: cell-based, human
Text: as §1
MTS viability assay (CellTiter 96® Aqueous One Solution Cell Proliferation Assay, Promega G3580) was assessed following the company conditions. The absorbance of each well was measured with a multimode plate reader (Spark, Tecan) at 490 nm. The percentage of cell viability was calculated by dividing the absorbance of each well by the average absorbance of the control wells.
Since both inhibition and sustained activation of RAS signaling are related to a decrease in cell survival, we analyzed the viability of the CRC cell lines DLD-1 (expressing oncogenic KRAS) and DLD-1-KO (oncogenic KRAS allele deleted), and the non-transformed cell line hTERT-RPE. […] At the IC50 of approximately 80 μM for DLD-1 cells, the viability of DLD-1-KO and of non-transformed cells was not affected (FIG. 6A). […] The effect of P14B in DLD-1 cells cultured in 3D conditions was also determined. […] Consequently, we conclude that P14B selectively reduces the viability of CRC cells expressing oncogenic KRAS, causing minor effects if these cells have been knocked out for oncogenic KRAS or in non-transformed cells. Thereby, P14B might be considered as an inducer of apoptosis in CRC with oncogenic KRAS.
[…] Each point corresponds to n=6. The concentration (μM) indicated in the graph is the one in the final 100 μL volume). **** p<0.0001 (t-student test).

[5] = tested on: DLD-1 cells; test: Cleaved caspase-3 Western blot, DLD-1; assay type: cell-based, human; conditions: DLD-1 cells treated 34 h or 48 h
Procedure: FIG. 6C is a blot showing extracts of DLD-1, DLD-1-KO and RPE cells at 34 h. and 48 h. DLD-1 cells treated with P14B for 36 h and 48 h were lysed and the expression of the apoptosis marker cleaved caspase-3 was analyzed by Western blot. Cells treated with the apoptosis inducer palmitic acid (PA) were used as a positive control.
Proteins were resolved by SDS-PAGE, transferred onto PVDF membranes (Immobilon-P, Millipore) and Western blot was performed as previously described (Cabot et al, Oncogene 2021). […]
Since both inhibition and sustained activation of RAS signaling are related to a decrease in cell survival, we analyzed the viability of the CRC cell lines DLD-1 (expressing oncogenic KRAS) and DLD-1-KO (oncogenic KRAS allele deleted), and the non-transformed cell line hTERT-RPE. […] The effect of P14B in DLD-1 cells cultured in 3D conditions was also determined. […]

[6] = DLD-1 serum-starved cells, 100 μM, 3 hours
[7] = DLD-1 starved cells, time course 15 min to 6 hours

- KRAS-ARAF binding [3]: No differences
- KRAS-BRAF interaction ([3]; with respect to non-treated cells): increase in the KRAS-BRAF interaction
- IC50 ([4]; DLD-1 cells, dose-response 0 to 100 μM, 24 hours): ~80 µM
SMILES: COc1ccc(C(c2c(C)n[nH]c2O)c2c(C)n[nH]c2O)cc1Oc1ccc([N+](=O)[O-])cc1 [Example P14B]
- AKT and ERK phosphorylation ([1]; DLD-1 serum-starved cells (0.1% FCS), 100 μM): dramatically increased; also recorded: increases endogenous downstream RAS signaling
- activation of AKT and ERK [1, 6]: activated AKT and ERK kinases; also recorded: increase AKT and/or ERK signalling
- relative capacity to activate Ras effectors ERK and AKT among the compounds [1, 6]: most efficient; also recorded: greatest capacity to activate Ras signaling; also recorded: highest activation of both Ras effectors
- duration of ERK phosphorylation compared with 10% FBS [1, 7]: maintained for a longer time; also recorded: more sustained
- onset of ERK and MEK activation compared with 10% FBS [1, 7]: clearly delayed
- phosphorylation of AKT and ERK [2]: induced phosphorylation of AKT and ERK
- P-C-RAF co-immunoprecipitated with KRAS ([3]; serum-starved cells): increased the levels of P—C-RAF co-immunoprecipitated with KRAS
- maxim cell viability reduction compared with Erlotinib ([4]; DLD-1, 5000 cells, 48 h treatment): significantly higher
- cell viability ([4]; DLD-1 cells, specifically at 75 μM and 100 μM): significantly reduced the cell viability; also recorded: decreases the viability
- cleaved caspase-3 expression [5]: only detected in DLD-1-treated cells
